According to patent US6174881A, “Hydroxymethylimidazodiazepines and their esters” (Hoffman-La Roche Inc., priority 1995, dated 2001):

How the values were obtained:
[1] = target: central benzodiazepine receptors; experiment: inhibition of the binding of tritiated flumazenil to the specific benzodiazepine receptors in the cortex of rats; details: 50% inhibition of specific binding of tritiated flumazenil, rat cortex; read-out: Affinity to benzodiazepine receptors IC50
Experimental: The affinity of compounds of general formula I to the central benzodiazepine receptors was established in vitro according to the methods described in Nature 294, 763-765 (1981) and J. Neurochemistry 37, 714-722 (1981). According to these methods the inhibition of the binding of tritiated flumazenil to the specific benzodiazepine receptors in the cortex of rats by the respective test substances is determined. The IC50 ("50% inhibiting concentration") denotes that concentration of the respective test substance which brings about a 50 percent inhibition of the specific binding of tritiated flumazenil to the specific benzodiazepine receptors in the cortex of rats.

mice = experiment: rotating rod test in mice (sedative/muscle relaxant properties), i.v.; format: in vivo, mouse; details: for ED50: Mus musculus, iv
Experimental: The sedative/muscle relaxant properties of the compounds of formula II in accordance with the invention can be determined, for example, in the rotating rod test. Mice weighing 19-21 g are used for this test. They have free access to feed and drinking water up to 1 hour prior to the beginning of the test. They are brought into the test laboratory at least 30 minutes prior to the test. In the rotating rod test the animals are placed on a horizontally arranged, smooth metal rod having a diameter of 3 cm., which is rotated at 2 revolutions per minute. Initially, the animals are given the opportunity of familiarizing themselves with the test situation for 30 seconds. Subsequently, those animals which succeed in remaining on the rod for at least 1 minute are selected. The test preparations are then administered intraveneously to these animals in different dosages. At various points in time it is then determined whether the animals are able to remain for a minimum period on the rod (minimum period: 10 seconds, 1 minute from 5 minutes after administration). That dosage at which 50% of the animals are capable of remaining on the rod is determined (ED50).

[2] = 15 s, minimum time 10 sec, 15 sec after administration
[3] = 0.5 min, minimum time 10 sec, 30 sec after administration
[4] = 1 min, minimum time 10 sec, 60 sec after administration
[5] = 2 min, minimum time 10 sec, 2 min after administration
[6] = 5 min, minimum time 60 sec, 5 min after administration
[7] = 0.25 h, minimum time 60 sec, 15 min after administration
[8] = 0.5 h, minimum time 60 sec, 30 min after administration
[9] = 1 h, minimum time 60 sec, 60 min after administration

Row | Compound | IC50 [1] [nM] | ED50 (mice; [2]) [mg/kg] | ED50 (mice; [3]) [mg/kg] | ED50 (mice; [4]) [mg/kg] | ED50 (mice; [5]) [mg/kg] | ED50 (mice; [6]) [mg/kg] | ED50 (mice; [7]) [mg/kg] | ED50 (mice; [8]) [mg/kg] | ED50 (mice; [9]) [mg/kg] | Rotating rod test, ED50 (mice; minimum time 10 sec, 15 sec after administration, 0.25 min) [mg/kg] | Rotating rod test, ED50 (mice; minimum time 10 sec, 30 sec after administration, 0.5 min) | Rotating rod test, ED50 (mice; minimum time 10 sec, 60 sec after administration, 1 min) [mg/kg] | Rotating rod test, ED50 (mice; minimum time 10 sec, 2 min after administration) [mg/kg] | Rotating rod test, ED50 (mice; minimum time 60 sec, 5 min after administration) [mg/kg] | Rotating rod test, ED50 (mice; minimum time 60 sec, 15 min after administration) [mg/kg] | Rotating rod test, ED50 (mice; minimum time 60 sec, 30 min after administration) [mg/kg] | Rotating rod test, ED50 (mice; minimum time 60 sec, 60 min after administration) [mg/kg]
1 | OCc1cn2c(n1)CN=C(c1ccccc1)c1cc(C(F)(F)F)ccc1-2 [F, 8-Trifluoromethyl-6-phenyl-4H-imidazo[1,2-a][1,4]benzodiazepine-2 methanol] | 12 | 1 | 1.1 | 1.1 | > 3.2 | 1 | 0.9 | 1.1 | 1.8 |  |  |  |  |  |  |  | 
2 | O=[N+]([O-])c1ccc2c(c1)C(c1ccccc1F)=NCc1nc(CO)cn1-2 [G, 6-(2-Fluorophenyl)-8-nitro-4H-imidazo[1,2-a][1,4]benzodiazepine-2 methanol] | 2.3 | 0.2 | 0.2 | 0.3 | 0.3 | 0.1 | 0.2 | 0.2 | ≥ 1 |  |  |  |  |  |  |  | 
3 | OCc1cn2c(n1)CN=C(c1ccccc1F)c1cc(Cl)ccc1-2 [C, 8-Chloro-6-(2-fluorophenyl)-4H-imidazo[1,2-a]benzodiazepine-2-methanol] | 1.7 | 0.1 | 0.3 | 0.3 | ≥ 10 | 0.8 | 0.4 | 1.1 | ≥ 10 |  |  |  |  |  |  |  | 
4 | OCc1cn2c(n1)CN=C(c1ccccc1Cl)c1cc(Cl)ccc1-2 [E, 8-Chloro-6-(2-chlorophenyl)-4H-imidazo[1,2-a][1,4]benzodiazepine-2 methanol] | 1.2 | ≤ 0.32 | 0.4 | 0.5 | 3.2 | 0.9 | 0.5 | ≥ 3.2 | ≥ 3.2 |  |  |  |  |  |  |  | 
5 | OCc1cn2c(n1)CN=C(c1ccccn1)c1cc(Br)ccc1-2 [I, 8-Bromo-6-(2-pyridyl)-4H-imidazo[1,2-a][1,4]benzodiazepine-2 methanol] | 40 | 1.5 | 2 | 3 | > 10 | 1.4 | 1.8 | 3 | ≥ 10 |  |  |  |  |  |  |  | 
6 | OCc1cn2c(n1)CN=C(c1ccccc1F)c1cc(I)ccc1-2 [H, 6-(2-Fluorophenyl)-8-iodo-4H-imidazo[1,2-a][1,4]benzodiazepine-2 methanol] | 2.07 | 0.1 | 0.06 | 0.09 | 0.1 | 0.1 | 0.1 | ≥ 1 | > 1 |  |  |  |  |  |  |  | 
7 | 2-Chloro-4-(2-fluorophenyl)-8,9-dihydro-6H-imidazo[1,2-a]thieno[3,2-f][1,4]diazepine-8-methanol | 2.6 |  |  |  |  |  |  |  |  | 0.5 | 0,7 mg/kg | 0.6 | 1.2 | 2.3 | 5.3 | ≥ 10 | > 10
8 | C=CCNCc1c(CO)nc2n1-c1ccc(Cl)cc1C(c1ccccc1F)=NC2 [D, 1-Allylaminomethyl-8-chloro-6-(2-fluorophenyl)-4H-imidazo[1,2-a][1,4]benzodiazepine-2-methanol] | 5.6 | 2.5 | 3 | 3.2 | 3.2 | 2.1 | 1.8 | ≥ 10 | > 10 |  |  |  |  |  |  |  | 
9 | CC(=O)OCc1cn2c(n1)CN=C(c1ccccc1F)c1cc(Cl)sc1-2 [B] | 6 | 0.6 | 0.7 | 1.2 | 1 | ≥ 10 | ≥ 10 | ≥ 10 | > 10 |  |  |  |  |  |  |  | 
